Measurements as given in BindingDB's records for doi:10.7270/Q2PR7TFT (Burnham Center For Chemical Genomics, 2010).
pEC50: −log10 of the molar value.

Target: T1, Type-1 angiotensin II receptor (Homo sapiens, UniProt P30556)
T1 sequence (P30556 whole entry): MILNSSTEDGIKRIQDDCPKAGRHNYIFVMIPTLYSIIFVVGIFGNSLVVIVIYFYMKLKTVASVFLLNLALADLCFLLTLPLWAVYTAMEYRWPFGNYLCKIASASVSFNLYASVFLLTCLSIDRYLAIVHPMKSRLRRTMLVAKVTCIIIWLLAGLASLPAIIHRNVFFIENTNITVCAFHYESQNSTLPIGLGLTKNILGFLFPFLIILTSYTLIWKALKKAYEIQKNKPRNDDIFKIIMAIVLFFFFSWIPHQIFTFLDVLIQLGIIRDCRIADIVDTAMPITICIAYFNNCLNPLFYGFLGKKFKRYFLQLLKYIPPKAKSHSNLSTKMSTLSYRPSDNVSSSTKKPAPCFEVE
Test: AT1 receptor agonists, dose response, selectivity assay for APJ receptor agonist project, cell-based, uHTS hits (AID 488865)

| Structure (SMILES) | pEC50 |
| --- | --- |
| CCCCCCC1=Cc2c/c(=C3/NN=C(c4cc(OC)c(OC)c(OC)c4)O3)c(=O)oc2=CC1=O | < 4.00 |
| COc1ccc(CN=Nc2cc(C)nc3ccc(OC)cc23)c(OC)c1 | < 4.00 |
| CCOC(=O)C1C(Cn2cnc3ccccc32)=NC(=O)NC1c1cc(C)ccc1C (centres undefined) [ethyl 6-(benzimidazol-1-ylmethyl)-4-(2,5-dimethylphenyl)-2-oxidanylidene-3,4-dihydro-1H-pyrimidine-5-carboxylate] | < 4.00 |
| COC(=O)C1C(Cn2cnc3ccccc32)=NC(=O)NC1c1cc(C)ccc1C (centres undefined) [methyl 6-(benzimidazol-1-ylmethyl)-4-(2,5-dimethylphenyl)-2-oxo-3,4-dihydro-1H-pyrimidine-5-carboxylate] | < 4.00 |
